Measurements reported in paper PMC11190223, “Identification of sulfakinin receptor regulating feeding behavior and hemolymph trehalose homeostasis in the silkworm, Bombyx mori” (Scientific Reports, 2024).
Where no end group is shown, it is not given here. [ ]: non-standard residue; d: D form. sY = N[C@@H](Cc1ccc(OS(=O)(=O)O)cc1)C(=O)O

Tests used:
[1] = Feeding behavior assay: larval body weight; type: in vivo, Bombyx mori; conditions: injected daily, final concentration 10 nM, 5th instar larvae, days 2 and 4 post-injection vs control (HBM)
Procedure: (§1) Synchronized larvae of the first day of 5th instar were chosen for feeding behavior assay. Silkworms were starved for 12 h to standardize the starting level. To knock down bngr-a9, 5 μg dsRNA/BNGR-A9 or dsRNA/EGFP was injected into the abdomen of the larvae at the indicated time using a 10 μl microsyringe. For silkworms, both treated and untreated with dsRNA, synthetic SK peptide (at a final concentration of 10 nM) was injected daily starting from the second day of the fifth instar. For each trial, twenty synchronized P50 larvae were used. After injection, the silkworm larvae were fed with enough mulberry leaves three times a day and maintained under standard conditions. Larval body weights and food consumption were measured every other day until pupation.

BNGR-A9 [2] = test: CRE-driven luciferase reporter assay, BNGR-A9; type: cell-based, Bombyx mori; conditions: 4 h, at least three independent experiments; for EC50: dose-response
Text: (§2) The entire coding region of BNGR-A9 (NM_001134272.1) was obtained by PCR and subsequently cloned into pEGFP-N1 and pCMV-Flag vectors using the primers listed in Table S1. The Flag-BNGR-A9 construct was generated for functional assays, including CRE-luciferase, calcium mobilization, and ERK phosphorylation assays, while BNGR-A9-EGFP was created for receptor visualization purposes. Additionally, for expression in the BmN cell system, the BNGR-A9 gene was inserted into the pIZT/V5-His vector. All constructs were validated by DNA sequencing.
(§3) HEK293 cells were cultured with Dulbecco’s Modified Eagle’s Medium (Gibco, NY, USA) supplied with 10% Fetal bovine serum (Gibco, NY, USA) in a 37 °C humidified incubator containing 5% CO2. BmN cells were maintained in TC 100 insect medium (AppliChem, Darmstadt, Germany) supplied with 10% Fetal bovine serum in a 28 °C incubator. Both HEK293 and BmN cells were transfected with X-tremeGENE (Roche, Mannheim, Germany) according to the manufacturer’s instruction.
HEK293 and BmN cells were transfected with the different Bombyx receptors (Flag-BNGR-A9, -A24, -A32, or A33 for HEK293 cells, and pIZT-BNGR-A9, -A24, -A32, or A33 for BmN cells) along with the corresponding CRE-reporter plasmid. When cell confluence reached 90–95%, they were treated with various concentrations of Bombyx mori neuropeptides, with or without forskolin. Following a 4-h incubation period, cells were lysed, and luciferase activities were determined using a firefly luciferase kit (Beyotime, Shanghai, China).
(§4) Data analysis was conducted using GraphPad Prism (San Diego, CA), with results presented as mean ± SEM. Statistical significance was assessed through Student’s t-test or two-way ANOVA with multiple comparisons, with p values below 0.05 denoted as significant (*p < 0.05, **p < 0.01, ***p < 0.001). Dose–response curves were generated via non-linear curve fitting. Adobe Photoshop was used to process images, ensuring uniform brightness and contrast settings across all conditions. All images and data provided represent findings from a minimum of three independent experiments.

[3] = Feeding behavior assay: food consumption; type: in vivo, Bombyx mori; conditions: injected daily, final concentration 10 nM, 5th instar larvae; days 2 and 4 post-injection vs control (HBM)
Procedure: Double-stranded RNAs were synthesized using MEGAscript RNAi T7 Kit (Ambion, CA, USA) following the manufacturer’s instructions. Templates for in vitro transcription were generated by PCR using the primers containing the T7 polymerase promoter sequence at their 5′ ends, as listed in Table S1. For each 20-μl reaction, 1 μg PCR product was added as the template. Following transcription, the reaction mixture was purified by phenol/chloroform extraction and ethanol precipitation. The resulting dsRNA products were diluted with nuclease-free water to achieve the desired concentration (final volume of 2–5 μl).
as §1

BNGR-A9 [4] = test: Fura-2 AM-based Ca^2+ mobilization assay, BNGR-A9; type: cell-based, Bombyx mori
Text: as §2, §3
To monitor the changes of intracellular calcium, Fura-2 AM (Dojindo, Kumamoto, Japan) was utilized as the calcium indicator, following the methodology outlined in a previous study. Briefly, HEK293 cells stably expressing Flag-BNGR-A9 were exposed to various concentrations of Bombyx mori neuropeptides and measured using a fluorescence spectrometer (Tecan Infinite 200 PRO). Calcium levels were determined by the ratio of fluorescence excitation at 340 nm to that at 380 nm. If necessary, cells were pre-treated with U73122, FR900359, or KT5720 for 30 min prior to the initiation of the experiment. For assays involving BmN cells expressing pIZT-BNGR-A9, the procedures were conducted at 28 °C, and HBSS was replaced with HBM (Hepes-Buffered Medium: 140 mM NaCl, 5 mM KCl, 1 mM MgCl2, 1.2 mM Na2HPO4, 5 mM NaHCO3, 10 mM glucose, and 20 mM HEPES–NaOH, CaCl2 (1 mM), pH 6.2).
as §4

With “BmsSK: Bombyx mori sulfated-sulfakinin, synthetic; sulfated version of GDDTFDD^8YGHLRF-NH2 (GDDTFDD[sY]GHLRF-NH2; N-terminus assumed; SMILES CC(C)C[C@H](NC(=O)[C@H](Cc1c[nH]cn1)NC(=O)CNC(=O)[C@H](Cc1ccc(OS(=O)(=O)O)cc1)NC(=O)[C@H](CC(=O)O)NC(=O)[C@H](CC(=O)O)NC(=O)[C@H](Cc1ccccc1)NC(=O)[C@@H](NC(=O)[C@H](CC(=O)O)NC(=O)[C@H](CC(=O)O)NC(=O)CN)[C@@H](C)O)C(=O)N[C@@H](CCCNC(=N)N)C(=O)N[C@@H](Cc1ccccc1)C(N)=O)” the Body weight [1] was “weight loss”, the Body weight ([1]; listed as synthetic sulfated- SK) was “notably declined” and the EC50 (BNGR-A9 [2]; BmN cells stably expressing BNGR-A9) was 60 nM. The “Activation of BNGR-A9 (CRE-driven luciferase activity)” value (BNGR-A9 [2]; HEK293 and BmN cells, 1 μM peptide, with or without forskolin (5 μM)) was “could activate BNGR-A9”, the EC50 (BNGR-A9 [2]; HEK293 cells stably expressing BNGR-A9) was 73.3 nM and the Food consumption [3] was “notably declined”. For the same substance, the “Ca^2+ response” value (BNGR-A9 [4]; 1 μM peptide, Fura-2 AM, BNGR-A9-expressing HEK293 and BmN cells, three independent experiments) was “triggered responses in BNGR-A9-expressing cells”, the “Ca^2+ response compared to BmnsSK” value (BNGR-A9 [4]; BNGR-A9-expressing HEK293 and BmN cells, Fura-2 AM) was “significantly greater Ca^2+ response” and the EC50 (BNGR-A9 [4]; BmN cells expressing BNGR-A9, Fura-2 AM, 28 °C, HBM pH 6.2, three independent experiments) was 51.4 nM. The EC50 (BNGR-A9 [4]; HEK293 cells expressing BNGR-A9, Fura-2 AM, three independent experiments) was 29 nM.
